One assay concerns D2 receptor. Conditions: 2–5 mg daily ref 54; cited from earlier work.
For assay [1], the system named is patients with stage I–II HD. Set-up: method as in earlier work. To be noted: cited from earlier work.
The test system of another assay is striatal cAMP and cGMP. Description: cAMP and cGMP levels in the striatum. The class given is in vivo, rat. To be noted: maximal dose 30 mg/kg. The method, then:
The striatum was dissected, weighed, and then frozen in liquid nitrogen. For cyclic nucleotide measurements, frozen striatal tissue was homogenized in 5% trichloroacetic acid and centrifuged and the supernatant was collected. Supernatants were ether-washed and then the cAMP and cGMP levels in the aqueous phase were determined by enzyme immunoassay using kits from Cayman Chemical Co. (Ann Arbor, MI, USA)

The test system of the next assay is primates. Set-up: method as in PMID 24490227. Conditions: cited from earlier work.
The next assay relates to acute schizophrenia. To be noted: press release ref 44; cited from earlier work.

For the compound `O=C(CCCN1CCC(O)(c2ccc(Cl)cc2)CC1)c1ccc(F)cc1` [haloperidol], the D2 occupancy with D2 receptor is 60–80%.

Consider `Cn1cc(-c2ccncc2)c(-c2ccc(OCc3ccc4ccccc4n3)cc2)n1` [MP-10], for which the “primary outcome (UHDRS-TMS) and clinical global impression of improvement” value in assay [1] (26-week phase 2, 272 patients ref 45) was “no improvement in the primary outcome measure”. The “quantitative motor assessment (Q-motor)” value in assay [1] (26-week phase 2 ref 45) was “dose-dependent improvement”. Moreover, in the assay on striatal cAMP and cGMP, the “effect on striatal cAMP and cGMP levels” value was “increases”. Also, the “effect on motivational aspects of behavior” value in the assay on primates is “dampen motivational aspects of behavior to a greater extent than a D2 antagonist”.

In the case of `Cc1ncc(C)n2nc(-c3ccn4cc(-c5ccccc5)nc4n3)nc12` [CPL500-036], the “efficacy in acute schizophrenia” value in the assay on acute schizophrenia is “positive efficacy vs. placebo”.

The record behind these values is paper PMC11274801, “A Novel PDE10A Inhibitor for Tourette Syndrome and Other Movement Disorders” (Cells, 2024).
